{"source": "patent US10160755B2", "about": "(Plexxikon Inc., priority 2015, dated 2018)", "key": {"FLT3-D835Y": {"target": "T1, FLT3-D835Y (Homo sapiens, UniProt P36888, D835Y)", "T1 construct": "purchased Invitrogen PV3967", "T1 sequence (P36888 27-993 D835Y)": "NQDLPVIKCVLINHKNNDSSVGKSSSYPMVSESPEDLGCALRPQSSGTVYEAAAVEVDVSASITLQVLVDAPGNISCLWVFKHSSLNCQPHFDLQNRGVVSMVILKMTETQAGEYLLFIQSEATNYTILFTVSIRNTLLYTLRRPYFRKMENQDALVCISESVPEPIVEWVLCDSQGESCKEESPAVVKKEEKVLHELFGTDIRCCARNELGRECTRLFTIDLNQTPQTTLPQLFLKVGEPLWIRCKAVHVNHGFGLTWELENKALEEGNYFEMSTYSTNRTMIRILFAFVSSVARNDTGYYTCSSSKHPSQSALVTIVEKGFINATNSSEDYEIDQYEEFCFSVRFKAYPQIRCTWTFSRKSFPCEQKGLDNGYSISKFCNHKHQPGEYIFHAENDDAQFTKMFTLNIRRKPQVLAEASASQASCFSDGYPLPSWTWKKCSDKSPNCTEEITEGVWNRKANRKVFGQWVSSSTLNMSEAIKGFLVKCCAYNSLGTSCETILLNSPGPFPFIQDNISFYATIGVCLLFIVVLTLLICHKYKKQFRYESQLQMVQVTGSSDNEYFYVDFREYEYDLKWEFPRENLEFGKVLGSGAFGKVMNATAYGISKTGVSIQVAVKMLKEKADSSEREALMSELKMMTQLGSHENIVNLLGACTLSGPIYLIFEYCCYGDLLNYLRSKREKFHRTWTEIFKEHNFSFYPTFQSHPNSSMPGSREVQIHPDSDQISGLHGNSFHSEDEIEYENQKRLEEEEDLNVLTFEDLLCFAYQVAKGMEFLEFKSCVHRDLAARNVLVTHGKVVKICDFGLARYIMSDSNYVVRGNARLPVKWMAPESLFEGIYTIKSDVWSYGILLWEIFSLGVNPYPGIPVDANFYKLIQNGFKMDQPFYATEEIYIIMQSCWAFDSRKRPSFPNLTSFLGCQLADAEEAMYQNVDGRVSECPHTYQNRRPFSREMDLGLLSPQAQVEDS", "test": "FLT3-D835Y biochemical kinase assay (AlphaScreen)", "how_it_was_run": "(§1)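 IC50 values reflect loss of AlphaScreen proximity signal (excitation 680 nm, emission 580 nm) from tyrosine phosphorylation of a biotinylated poly(Glu4-Tyr) substrate at 30 nM. ATP was 10 μM for the D835Y mutant and 100 μM for ITD. Detection used PY20 acceptor beads.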"}, "c-Kit": {"target": "c-Kit (Homo sapiens, UniProt P10721)", "sequence (P10721 26-976)": "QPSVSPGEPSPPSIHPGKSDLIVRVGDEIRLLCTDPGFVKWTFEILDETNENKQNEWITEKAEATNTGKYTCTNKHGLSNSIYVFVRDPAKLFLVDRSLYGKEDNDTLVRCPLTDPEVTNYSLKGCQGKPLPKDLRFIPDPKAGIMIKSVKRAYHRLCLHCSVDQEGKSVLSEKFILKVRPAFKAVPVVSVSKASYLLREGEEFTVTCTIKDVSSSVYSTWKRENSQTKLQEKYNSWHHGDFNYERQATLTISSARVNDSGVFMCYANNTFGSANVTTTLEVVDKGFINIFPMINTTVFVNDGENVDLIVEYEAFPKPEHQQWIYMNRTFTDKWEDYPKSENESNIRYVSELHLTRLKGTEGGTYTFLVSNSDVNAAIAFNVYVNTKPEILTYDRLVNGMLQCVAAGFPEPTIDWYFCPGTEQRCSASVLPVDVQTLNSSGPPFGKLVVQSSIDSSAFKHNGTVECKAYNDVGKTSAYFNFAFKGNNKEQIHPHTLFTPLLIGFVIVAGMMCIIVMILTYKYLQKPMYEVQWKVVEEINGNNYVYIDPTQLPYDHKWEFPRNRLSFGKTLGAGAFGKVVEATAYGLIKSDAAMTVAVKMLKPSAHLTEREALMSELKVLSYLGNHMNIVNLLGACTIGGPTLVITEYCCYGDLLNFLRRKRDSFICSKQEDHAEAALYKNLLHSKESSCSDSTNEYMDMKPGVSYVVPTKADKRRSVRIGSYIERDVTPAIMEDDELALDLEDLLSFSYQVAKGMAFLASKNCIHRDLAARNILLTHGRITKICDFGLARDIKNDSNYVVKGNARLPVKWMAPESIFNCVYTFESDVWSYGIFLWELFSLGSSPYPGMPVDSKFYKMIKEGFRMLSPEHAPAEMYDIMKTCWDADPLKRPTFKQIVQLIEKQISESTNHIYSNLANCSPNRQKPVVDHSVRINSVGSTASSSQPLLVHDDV", "test": "c-Kit biochemical assay (per US 2007/0032519)", "experimental": "The following Table 2 provides data indicating FLT3 ITD, FLT3 D835Y, and KIT biochemical activity, and BaF3 FLT3 ITD/F69L cellular inhibitory activity for exemplary compounds described in this disclosure. In the table below, activity is provided as follows: +++=0.0001<IC50<1 μM; ++=1 μM<IC50<10 μM, +=10 μM<IC50<200 μM. Assays for the biochemical activity of c-Kit and FMS were conducted according to those assays described in US Patent Application Publication number US 2007/0032519, the disclosure of which is hereby incorporated by reference in its entirety."}, "[1]": {"target": "T2, BA/F3-FLT3-ITD + F691L cells (Homo sapiens, UniProt P36888, F691L, cells depend on it, form not given)", "T2 sequence (P36888 1-993 F691L)": "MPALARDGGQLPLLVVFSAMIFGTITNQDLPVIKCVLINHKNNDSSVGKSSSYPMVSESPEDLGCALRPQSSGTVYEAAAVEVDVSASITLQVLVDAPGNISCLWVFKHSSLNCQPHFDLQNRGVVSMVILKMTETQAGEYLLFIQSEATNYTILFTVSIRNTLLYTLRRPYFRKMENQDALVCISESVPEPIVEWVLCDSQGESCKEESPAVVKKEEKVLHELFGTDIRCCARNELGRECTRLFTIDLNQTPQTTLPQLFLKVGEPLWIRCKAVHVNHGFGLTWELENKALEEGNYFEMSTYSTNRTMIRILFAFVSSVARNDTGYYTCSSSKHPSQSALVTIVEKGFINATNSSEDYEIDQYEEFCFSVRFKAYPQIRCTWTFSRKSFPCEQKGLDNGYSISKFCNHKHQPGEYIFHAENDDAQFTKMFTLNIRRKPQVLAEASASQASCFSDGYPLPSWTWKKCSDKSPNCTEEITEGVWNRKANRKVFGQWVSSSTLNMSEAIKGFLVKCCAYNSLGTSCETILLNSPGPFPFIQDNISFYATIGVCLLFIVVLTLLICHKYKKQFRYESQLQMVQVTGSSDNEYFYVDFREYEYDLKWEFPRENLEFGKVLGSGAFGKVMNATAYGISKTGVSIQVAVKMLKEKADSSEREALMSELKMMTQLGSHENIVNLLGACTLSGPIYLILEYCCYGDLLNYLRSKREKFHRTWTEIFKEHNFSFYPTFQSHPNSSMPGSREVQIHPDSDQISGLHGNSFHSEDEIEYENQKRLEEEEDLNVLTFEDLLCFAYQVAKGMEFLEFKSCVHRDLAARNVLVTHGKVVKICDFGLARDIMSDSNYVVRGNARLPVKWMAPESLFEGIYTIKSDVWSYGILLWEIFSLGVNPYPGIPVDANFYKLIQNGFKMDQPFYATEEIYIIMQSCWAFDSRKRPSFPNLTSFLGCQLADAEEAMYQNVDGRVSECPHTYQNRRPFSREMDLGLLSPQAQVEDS", "test": "BA/F3-FLT3-ITD + F691L cell proliferation assay (CellTiter-Glo)", "format": "cell-based, murine", "conditions": "BaF3 FLT3 ITD/F691L cells; read-out: Cell Activity (IC50 μM) BaF3_FLT3_ITD/F691L", "excerpt": "The FLT3 inhibitors may also be assessed using leukemia cell lines that express endogenous FLT3-ITD or cells that are engineered to express wild-type or mutant FLT3. The cells expressing endogenous FLT3 are dependent upon FLT3 catalytic activity for growth. For the engineered cells, murine BA/F3 cells were transfected with full-length FLT3 (either wild-type, or containing the ITD, D835Y, or F691L mutations, as noted). The parental BA/F3 cells are dependent upon Interleukin-3 (IL-3) for survival, and introduction of the FLT3 constructs renders these cells dependent upon FLT3 kinase activity when cultured in the absence of IL-3. Engineered BA/F3 cell growth assays can be performed in either the absence or presence of IL-3, to assess the compound inhibition of FLT3 or to detect the presence of off-target activity, respectively. Inhibitors of FLT3 kinase activity reduce or eliminate the FLT3 oncogenic signaling, resulting in reduced cell proliferation. This inhibition is measured as a function of compound concentration to assess IC50 values.\nCells were seeded at 1×10^4 cells per well of a 96 well cell culture plate in 50 μl of cell culture medium. Compounds were dissolved in DMSO, typically at a concentration of 5 mM and were serially diluted 1:3 for a total of eight points and added to the cells to final concentrations of 10, 3.3, 1.1, 0.37, 0.12, 0.041, 0.014 and 0.0046 μM in 100 μl cell culture medium (final concentration 0.2% DMSO). […] The cells were incubated at 37° C., 5% CO2 for three days. CellTiter-Glo Buffer (Promega Cell Viability Assay catalog #G7573) and substrate were equilibrated to room temperature, and enzyme/substrate Recombinant Firefly Luciferase/Beetle Luciferin was reconstituted. The cell plates were equilibrated to room temperature for 30 minutes, then lysed by addition of an equivalent volume of the Celltiter-Glo Reagent. The plate was mixed for 10 minutes on a plate shaker to lyse the cells. The plates were read on a Tecan M1000 using Luminescence protocol modified to read 0.1 s per well. The luminescence reading assesses the ATP content, which correlates directly with cell number such that the reading as a function of compound concentration was used to determine the IC50 value."}, "FLT3-ITD": {"target": "T3, FLT3-ITD (Homo sapiens, UniProt P36888)", "T3 construct": "FLT3-ITD; Invitrogen #PV6190", "T3 sequence (P36888 1-993)": "T2 sequence (P36888 1-993 F691L) with L691F", "test": "FLT3-ITD biochemical kinase assay (AlphaScreen)", "how_it_was_run": "as §1"}}, "note": "Where a chain is given by its changes, count along the chain named."}
{"smiles": "Cc1cc2[nH]cnc2cc1-c1c[nH]c2ncccc12", "note": "[P-025, 6-methyl-5-(1H-pyrrolo[2,3-b]pyridin-3-yl)-1H-benzimidazole]", "values": [{"measurement": "IC50", "setting": "FLT3-D835Y", "result": "1 to 10", "unit": "µM"}, {"measurement": "IC50", "setting": "c-Kit", "result": "10 to 200", "unit": "µM"}]}
{"smiles": "CNS(=O)(=O)c1ccc(-c2cnc3[nH]cc(-c4ccc5ncsc5c4)c3n2)cc1", "note": "[P-078, 4-[7-(1,3-benzothiazol-6-yl)-5H-pyrrolo[2,3-b]pyrazin-2-yl]-N-methyl-benzenesulfonamide]", "values": [{"measurement": "IC50", "setting": "FLT3-D835Y", "result": "0.0001 to 1", "unit": "µM"}, {"measurement": "IC50", "setting": "c-Kit", "result": "10 to 200", "unit": "µM"}]}
{"smiles": "COc1cc(-c2cnc3[nH]cc(-c4ccc5ncsc5c4)c3n2)ccn1", "note": "[P-075, 6-[2-(2-methoxy-4-pyridyl)-5H-pyrrolo[2,3-b]pyrazin-7-yl]-1,3-benzothiazole]", "values": [{"measurement": "IC50", "setting": "FLT3-D835Y", "result": "0.0001 to 1", "unit": "µM"}, {"measurement": "IC50", "setting": "c-Kit", "result": "10 to 200", "unit": "µM"}]}
{"smiles": "CN1CCN(c2ccc(-c3cnc4[nH]cc(-c5ccc6ncn(C7CCCNC7)c6c5)c4n3)cn2)CC1", "note": "(stereo not drawn) [P-334, 2-[6-(4-methylpiperazin-1-yl)-3-pyridyl]-7-[3-(3-piperidyl)benzimidazol-5-yl]-5H-pyrrolo[2,3-b]pyrazine]", "values": [{"measurement": "GI50", "setting": "[1]", "result": "0.0001 to 1", "unit": "µM"}, {"measurement": "IC50", "setting": "FLT3-ITD", "result": "0.0001 to 1", "unit": "µM"}]}
{"smiles": "COc1cnc2[nH]cc(-c3ccc4ncn(Cc5ccccc5)c4c3)c2c1", "note": "[P-073, 1-benzyl-6-(5-methoxy-1H-pyrrolo[2,3-b]pyridin-3-yl)benzimidazole]", "values": [{"measurement": "IC50", "setting": "FLT3-D835Y", "result": "0.0001 to 1", "unit": "µM"}, {"measurement": "IC50", "setting": "c-Kit", "result": "1 to 10", "unit": "µM"}]}
{"smiles": "COc1cnc2[nH]cc(-c3ccc4ncn(C5CCCCC5)c4c3)c2c1", "note": "[P-072, 1-cyclohexyl-6-(5-methoxy-1H-pyrrolo[2,3-b]pyridin-3-yl)benzimidazole]", "values": [{"measurement": "IC50", "setting": "FLT3-D835Y", "result": "0.0001 to 1", "unit": "µM"}, {"measurement": "IC50", "setting": "c-Kit", "result": "1 to 10", "unit": "µM"}]}
{"smiles": "Cn1cc(-c2cnc3[nH]cc(-c4ccc5ncn(C)c5c4)c3c2)ccc1=O", "note": "[P-118, 1-methyl-5-[3-(3-methylbenzimidazol-5-yl)-1H-pyrrolo[2,3-b]pyridin-5-yl]pyridin-2-one]", "values": [{"measurement": "IC50", "setting": "FLT3-D835Y", "result": "0.0001 to 1", "unit": "µM"}, {"measurement": "IC50", "setting": "c-Kit", "result": "1 to 10", "unit": "µM"}]}
{"smiles": "COc1ccc(-c2cnc3[nH]cc(-c4ccc5ncsc5c4)c3n2)cn1", "note": "[P-077, 6-[2-(6-methoxy-3-pyridyl)-5H-pyrrolo[2,3-b]pyrazin-7-yl]-1,3-benzothiazole]", "values": [{"measurement": "IC50", "setting": "FLT3-D835Y", "result": "0.0001 to 1", "unit": "µM"}, {"measurement": "IC50", "setting": "c-Kit", "result": "1 to 10", "unit": "µM"}]}
{"smiles": "CN1CCN(c2ccc(-c3cnc4[nH]cc(-c5ccc6ncn(C(C)(C)C)c6c5)c4n3)cn2)CC1", "note": "[P-333, 7-(3-tert-butylbenzimidazol-5-yl)-2-[6-(4-methylpiperazin-1-yl)-3-pyridyl]-5H-pyrrolo[2,3-b]pyrazine]", "values": [{"measurement": "GI50", "setting": "[1]", "result": "0.0001 to 1", "unit": "µM"}, {"measurement": "IC50", "setting": "FLT3-ITD", "result": "0.0001 to 1", "unit": "µM"}]}
{"smiles": "COc1cnc2[nH]cc(-c3cc4nc[nH]c4cc3C)c2c1", "note": "[P-026, 5-methoxy-3-(6-methyl-1H-benzimidazol-5-yl)-1H-pyrrolo[2,3-b]pyridine]", "values": [{"measurement": "IC50", "setting": "FLT3-D835Y", "result": "1 to 10", "unit": "µM"}, {"measurement": "IC50", "setting": "c-Kit", "result": "10 to 200", "unit": "µM"}]}
{"smiles": "COc1cnc2[nH]cc(-c3ccc4ncn(C5CCNC5)c4c3)c2c1", "note": "(stereo not drawn) [P-067, 5-methoxy-3-(3-pyrrolidin-3-ylbenzimidazol-5-yl)-1H-pyrrolo[2,3-b]pyridine]", "values": [{"measurement": "IC50", "setting": "FLT3-D835Y", "result": "0.0001 to 1", "unit": "µM"}, {"measurement": "IC50", "setting": "c-Kit", "result": "10 to 200", "unit": "µM"}]}
{"smiles": "COc1cnc2[nH]cc(-c3ccc4ncn(C5CCNCC5)c4c3)c2c1", "note": "[P-071, 5-methoxy-3-[3-(4-piperidyl)benzimidazol-5-yl]-1H-pyrrolo[2,3-b]pyridine]", "values": [{"measurement": "IC50", "setting": "FLT3-D835Y", "result": "0.0001 to 1", "unit": "µM"}, {"measurement": "IC50", "setting": "c-Kit", "result": "10 to 200", "unit": "µM"}]}
